Data published in PMC3174134, “Lucanthone and Its Derivative Hycanthone Inhibit Apurinic Endonuclease-1 (APE1) by Direct Protein Binding” (PLoS ONE, 2011).

Legend:
human Nth [1] = target: T1, human Nth (Homo sapiens, UniProt P78549); experiment: Cleavage of human Nth by lucanthone (specificity control); details: data not shown
T1 sequence (P78549 23-304): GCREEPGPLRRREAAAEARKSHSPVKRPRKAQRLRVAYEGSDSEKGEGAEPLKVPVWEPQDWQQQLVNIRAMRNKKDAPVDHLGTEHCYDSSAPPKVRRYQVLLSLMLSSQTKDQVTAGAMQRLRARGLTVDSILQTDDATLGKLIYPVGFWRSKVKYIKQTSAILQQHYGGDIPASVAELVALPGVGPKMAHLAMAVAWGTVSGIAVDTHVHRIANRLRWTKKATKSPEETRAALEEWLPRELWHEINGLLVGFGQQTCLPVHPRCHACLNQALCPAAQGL

[2] = target: T2, APE1 single mutants (F266A or W280S) (Homo sapiens, UniProt P27695, F266A); experiment: Endonuclease activity of APE1 hydrophobic site mutants with lucanthone; format: biochemical; details: 100 µM lucanthone, 2 h, 37°C
T2 construct: made in house
T2 sequence (P27695 2-318 F266A): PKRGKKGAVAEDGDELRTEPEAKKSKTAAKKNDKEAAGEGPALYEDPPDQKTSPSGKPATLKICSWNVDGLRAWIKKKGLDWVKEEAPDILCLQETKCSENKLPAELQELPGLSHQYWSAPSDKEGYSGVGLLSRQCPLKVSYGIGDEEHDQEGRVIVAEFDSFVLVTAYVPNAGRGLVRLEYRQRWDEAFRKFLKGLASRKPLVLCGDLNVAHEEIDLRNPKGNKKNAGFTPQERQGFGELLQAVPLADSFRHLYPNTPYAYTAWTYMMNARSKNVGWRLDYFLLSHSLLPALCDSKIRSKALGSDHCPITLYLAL
Description: APE1 endonuclease activity was determined using an assay that measures the conversion of plasmid DNA from supercoiled to relaxed form by incision at an abasic site [35]–[36]. Briefly, the substrate used was 200 ng of depurinated pUC18 DNA in 10 µl of 1× APE1 buffer containing 50 mM Hepes, pH 7.4, 150 mM KCl, 5 mM MgCl2 and 100 µg/ml of BSA in presence of different concentrations of the cell extract (1 µl containing 0–55 ng of total protein). Similar reactions mixtures were set up with untreated pUC18, which served as the internal control. This reaction mixture was incubated at 37°C for 15 min, and the reaction was stopped by addition of alkaline stop mix (0.25% bromocresol green in 0.25N NaOH, 50% glycerol) and left at room temperature for 10–15 min. Then the products were resolved on a 0.8% agarose gel in 40 mM Tris-acetate and 2 mM EDTA for 2 h. The gel was stained with ethidium bromide to visualize supercoiled and relaxed plasmid DNA and imaged with a digital imaging system and the area under the supercoiled and relaxed form was determined. Final calculations were done in femtomoles (fmol) of abasic sites incised/min/mg protein with normalization done using Pyruvate Kinase units (PKU) present in these extracts. […] The endonuclease activity inhibition by lucanthone was analyzed using standard Lineweaver-Burke Plot to determine if the inhibition was competitive or non-competitive.

human Nth [3] = target: T1, human Nth; experiment: Circular dichroism of human Nth with lucanthone; details: 140 µM lucanthone, 37°C, 60 min
APE1 = APE1 (Homo sapiens, UniProt P27695); experiment: APE1 cleavage in whole cell extracts of U251 1-5 APE1 overexpressor clone, Western blot with protease inhibitor cocktail; design: the full length APE1 protein was successfully expressed and purified; made in house; host or cells: E. coli BL21/DE3; details: U251 1-5 whole cell extracts, 2 h, 37°C
Chain of APE1 (P27695 whole entry): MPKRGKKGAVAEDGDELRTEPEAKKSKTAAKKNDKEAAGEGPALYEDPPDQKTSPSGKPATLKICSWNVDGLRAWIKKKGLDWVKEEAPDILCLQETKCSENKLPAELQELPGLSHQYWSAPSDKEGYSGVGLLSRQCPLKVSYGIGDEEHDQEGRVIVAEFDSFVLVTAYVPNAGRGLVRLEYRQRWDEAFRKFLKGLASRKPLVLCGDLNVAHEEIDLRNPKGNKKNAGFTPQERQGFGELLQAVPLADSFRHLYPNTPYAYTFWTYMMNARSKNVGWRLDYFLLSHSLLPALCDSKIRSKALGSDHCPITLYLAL
Description: Total purified protein concentration was determined by the ratio of A280/A260. 250 ng of APE1 treated with lucanthone or hycanthone (0.05–100 µM) for 2 h at 37°C in final volume of 30 µl were mixed with an equal volume of gel loading buffer (0.001% bromophenol blue, 4% SDS, 10% 2-ME, 20% glycerol, and 125 mM Tris pH 6.8) and denatured at 95°C for 5 min. Total protein concentration in cell extracts was determined using the Bradford assay (BioRad, Hercules, CA) and 25 µg of total protein from soluble or insoluble cell fractions were mixed with an equal volume of gel loading buffer (0.001% bromophenol blue, 4% SDS, 10% 2-ME, 20% glycerol, and 125 mM Tris pH 6.8) and denatured at 95°C for 5 min. This mixture was separated by SDS-PAGE (4% stacking, 7.5% resolving gel) for 2–3 h at 40 mA on a BioRad MiniPROTEAN II Electrophoresis Cell. To detect proteins, proteins were transferred onto a trans-Blot nitrocellulose membrane (0.45 µm; BioRad) overnight at 4°C at 15 mA in standard Tris-Glycine buffer containing 20% ethanol. […] Chemi-luminescence was developed using an ECL kit according to the manufacturer's instructions and detected by exposing the blot to HyperfilmECL for 30 s–3 min. […]

CCN(CC)CCNc1ccc(C)c2sc3ccccc3c(=O)c12 [lucanthone, 1-[2-diethylaminoethylamino]-4-methylthioxanthen-9-one]
Cleavage of human Nth (human Nth [1]): did not observe any cleavage | Inhibition of endonuclease activity of single mutants F266A or W280S [2]: no inhibition was detected | Conformational change of human Nth (CD) (human Nth [3]): little conformational changes | Concentration causing cleavage of APE1 (APE1): 50 µM
